US11273172B2, “Synergistic combination of oligonucleotides and chemotherapeutic for treating cancer” (THE BOARD OF TRUSTEES OF THE UNIVERSITY OF ILLINOIS, priority 2017, dated 2022)
Several values for one entry are separate records, joined by “and”; a condition that tells them apart may be missing. Identical values can stand only once.

What was measured:
Test in all cases: MTT cell death assay, chemotherapeutic with and without MADD siRNA knockdown
Assay type in all cases: cell-based
[1] = tested on: HTH7 thyroid cancer cells; settings: siRNA 10 nM
Procedure: Cells are cultured and maintained at 37° C. in a humidified atmosphere containing 5% CO2 as described above. […] After 12-18 hours (Day 1), cells are transfected with Scramble or MADD siRNA at 10 nM concentration. The sequences of siRNAs (double stranded) used are:
On Day 4, when cells are properly adhered and retained their shape in 96-well plates, drugs are added. All drugs are diluted in complete media on the same day prior to the addition to the cells. In untreated cells, media is replaced with complete media. Two hundred μl volume of media (with or without drugs) is used for the drug treatment assay. Plates are incubated 24 hours, 48 hours and 72 hours at 37° C. in humidified CO2 incubator.
An MTT assay is performed to determine relative survival after drug treatment as described above. MTT (3-[4,5-Dimethylthiazol-2-yl]-2,5-diphenyltetrazolium bromide; Thiazolyl blue) is purchased from Sigma Aldrich (Cat number: M5655). […] Ten μl of MTT solution is added per well of 96-well plate. Plates are incubated for 2 hours at 37° C. in the humidified CO2 incubator. After 2 hours, media is aspirated using vacuum inside the biosafety hood. Purple colored crystals formed in viable cells are dissolved by adding 100 μl of Dimethyl sulfoxide (Thermo Fisher Scientific; Cat number D128-500) Plates are kept on shaker for 10 minutes for compete dissolution of crystals and absorbance is recorded at 595 nm using Bio-Rad iMark microplate reader. Data is analyzed in MICROSOFT EXCEL® software. Relative survival is calculated with respect to absorbance of control (untreated cells) to determine the effect of transfection as well as combination treatment.
(§1) Each data set takes into account any spontaneous cell death which is observed upon transfection with Scramble siRNA; the amount of spontaneous cell death from Scramble siRNA transfection (baseline) is subtracted from the amount of cell death observed in each siRNA transfection reaction to yield a Net Percent (Net %) cell death after accounting for Scrambled siRNA-induced cell death.

[2] = tested on: JIMT1 breast cancer cells; settings: Doxorubicin 0.075 μM, siRNA 10 nM, 24 hours post Doxorubicin treatment
Procedure: (§2) Cells are cultured and maintained at 37° C. in a humidified atmosphere containing 5% CO2 as described above. On Day 0, Cells are seeded in […] tissue culture dishes (Corning; Cat Number: 353003) to attain 60-70% confluence. In parallel, cells are also seeded in one 96-well plate (Corning; Cat number: 353072) for analysis of survival before reseeding. After 12-18 hours (Day 1), cells are transfected with Scramble or MADD siRNA at 10 nM concentration. The sequences of siRNAs (double stranded) used are:
(§3) On Day 4, when cells are properly adhered and retained their shape in 96-well plates, drugs are added. Doxorubicin was added at a working concentration of 5.0 nM, 9.375 nM, 0.075 μM, 0.25 μM, 0.5 μM, and 0.8 μM. All drugs are diluted in complete media on the same day prior to the addition to the cells. In untreated cells, media is replaced with complete media. Two hundred μl volume of media (with or without drugs) is used for the drug treatment assay. Plates are incubated 24 hours, 48 hours and 72 hours at 37° C. in humidified CO2 incubator.
(§4) An MTT assay is performed to determine relative survival after drug treatment as described above. MTT (3-[4,5-Dimethylthiazol-2-yl]-2,5-diphenyltetrazolium bromide; Thiazolyl blue) is purchased from Sigma Aldrich (Cat number: M5655). MTT is dissolved in sterile DPBS at the concentration of 5 mg/ml and filtered through […] syringe filter (Corning; Cat number: 431220). Ten μl of MTT solution is added per well of 96-well plate. Plates are incubated for 2 hours at 37° C. in the humidified CO2 incubator. After 2 hours, media is aspirated using vacuum inside the biosafety hood. Purple colored crystals formed in viable cells are dissolved by adding 100 μl of Dimethyl sulfoxide (Thermo Fisher Scientific; Cat number D128-500). Plates are kept on shaker for 10 minutes for compete dissolution of crystals and absorbance is recorded at 595 nm using Bio-Rad iMark microplate reader. Data is analyzed in MICROSOFT EXCEL® software. Relative survival is calculated with respect to absorbance of control (untreated cells) to determine the effect of transfection as well as combination treatment.
as §1

[3] = tested on: N87 gastric carcinoma cells; settings: Doxorubicin 0.8 μM, siRNA 10 nM, 72 hours post Doxorubicin treatment
Procedure: as §2, §3, §4, §1

[4] = Cisplatin 1.25 μM, 72 hours post Cisplatin treatment
[5] = Cisplatin 5 μM, 24 hours post Cisplatin treatment

Substance	Net % cell death after accounting for Scrambled siRNA [1, 4]	Observed % Cell death [1, 4]	Net % cell death after accounting for Scrambled siRNA [1, 5]	Observed % Cell death [1, 5]	Observed % Cell death [2]	Observed % Cell death [3]	Net % cell death after accounting for Scrambled siRNA [2]	Net % cell death after accounting for Scrambled siRNA [3]
MADD siRNA: siRNA targeting exon 13L of the MADD splice variant of the IG20 gene; SEQ ID NO: 4, 5′-GAUUGUCAUAGAUUCGCCGTT-3′ (chemistry not given here)	54% and 54 − 0 = 54%	54%	6% and 6 − 0 = 6%	6%	59%	21%	–	–
Scrambled siRNA: non-specific Scramble siRNA, negative control; SEQ ID NO: 5, 5′-UUGCUAAGCGUCGGUCAAUTT-3′ (chemistry not given here)	0 − 0 = 0%	0%	0 − 0 = 0%	0%	33%	14%	33 − 33 = 0%	14 − 14 = 0%
